In paper PMC2994747, “Molecular Characterization of c-Abl/c-Src Kinase Inhibitors Targeted against Murine Tumour Progenitor Cells that Express Stem Cell Markers” (PLoS ONE, 2010):
Like-named read-outs stand apart in the source and are kept apart here.

How the values were obtained:
BetaD5 [1] = assay: MTS cell viability assay; format: cell-based, mouse
Method: (§1) Three human and eleven murine cancer cell lines were used. The human NSCLC cell line A549 (ACC 107) and the human colorectal carcinoma cell line CaCo2 (ACC 169) were obtained from Deutsche Sammlung von Mikroorganismen und Zellkulturen (DSMZ, Braunschweig, Germany). The human hepatocellular carcinoma cell line HepG2 (HB-8065) was obtained from American Type Culture Collection (Manassas, VA, USA). The 11 murine NSCLC cell lines were established as described recently. Cells were grown in monolayer cultures in DMEM containing 10% foetal calf serum, 4 mmol/l L-glutamine and 2% Penicillin/Streptomycin at 37°C in a humidified atmosphere of 95% air and 5% CO2.
(§2) Cell culture viability was monitored by CellTiter96® AQueous One Solution Cell Proliferation Assay (Promega GmbH, Mannheim, Germany). The cells were seeded in triplicates in 96-well microtitre plates and treated with the dual kinase inhibitors or vehicle (0.2% DMSO). After 24 h or 96 h of treatment the MTS tetrazolium reagent was added to the cells and incubated for 1 h. Absorbance at 490 nm was assayed with a Victor3 Wallac 1420 Multilabel counter (PerkinElmer, Waltham, MA, USA).

A2C12 [2] = assay: MTS cell viability assay; format: cell-based, mouse
Method: as §1, §2

GammaA3 [3] = assay: MTS cell viability assay; format: cell-based, mouse
Method: as §1, §2

GammaD12 [4] = assay: MTS cell viability assay; format: cell-based, mouse
Method: as §1, §2

HepG2 [5] = assay: MTS cell viability assay; format: cell-based, human
Method: as §1, §2

CaCo2 [6] = assay: MTS cell viability assay; format: cell-based, human
Method: as §1, §2

A549 [7] = assay: MTS cell viability assay; format: cell-based, human
Method: as §1, §2

HepG2 [8] = assay: Cell cycle analysis by flow cytometry; format: cell-based, human; settings: IC50 concentration, 96 h
Method: (§3) CycleTEST™ PLUS DNA Reagent Kit (Becton Dickinson GmbH, Heidelberg, Germany) for cell cycle analysis was used, according to the instructions of the manufacturer. Briefly, the cells were harvested with trypsin, washed with PBS, and resuspended in CycleTEST Buffer. The cells were centrifuged and resuspended in solution A. After incubation for 10 min at room temperature, solution B was added and incubated. After adding solution C, the samples were incubated at 4°C protected from light. The samples were stored on ice and protected from light until analysis by FACScan flow cytometer (Becton Dickinson GmbH, Heidelberg, Germany).

CaCo2 [9] = assay: Cell cycle analysis by flow cytometry; format: cell-based, human; settings: IC50 concentration, 96 h
Method: as §3

A549 [10] = assay: Cell cycle analysis by flow cytometry; format: cell-based, human; settings: IC50 concentration, 96 h
Method: as §3

BetaD5 [11] = assay: Cell cycle analysis by flow cytometry; format: cell-based, mouse; settings: IC50 concentration, 96 h
Method: as §3

A2C12 [12] = assay: Cell cycle analysis by flow cytometry; format: cell-based, mouse; settings: IC50 concentration, 96 h
Method: as §3

GammaA3 [13] = assay: Cell cycle analysis by flow cytometry; format: cell-based, mouse; settings: IC50 concentration, 96 h
Method: as §3

GammaD12 [14] = assay: Cell cycle analysis by flow cytometry; format: cell-based, mouse; settings: IC50 concentration, 96 h
Method: as §3

[15] = Mus musculus, 24 h, read-out: Calculated IC50 after single treatment for 24 h
[16] = Mus musculus, 96 h, read-out: Calculated IC50 after daily treatment for 96 h
[17] = 96 h, read-out: Calculated IC50 after daily treatment for 96 h
[18] = 24 h, read-out: Calculated IC50 after single treatment for 24 h
[19] = MTS, 24 h, read-out: Calculated IC50 after single treatment for 24 h
[20] = MTS, 96 h, read-out: Calculated IC50 after daily treatment for 96 h

SMILES	IC50 (A549 [7]; [17])	IC50 (BetaD5 [1]; [18])	IC50 (BetaD5 [1]; [17])	IC50 (A2C12 [2]; [18])	IC50 (A2C12 [2]; [17])	IC50 (GammaA3 [3]; [18])	IC50 (GammaA3 [3]; [17])	IC50 (GammaD12 [4]; [19])	IC50 (GammaD12 [4]; [20])	Cells in G1 phase (HepG2 [8])	Cells in G2 phase (HepG2 [8])	Cells in S phase (HepG2 [8])	Cells in G1 phase (CaCo2 [9])	Cells in G2 phase (CaCo2 [9])	Cells in S phase (CaCo2 [9])	Cells in G1 phase (A549 [10])	Cells in G2 phase (A549 [10])	Cells in S phase (A549 [10])	Cells in G1 phase (BetaD5 [11])	Cells in G2 phase (BetaD5 [11])	also measured
Cc1nc(Nc2ncc(C(=O)Nc3c(C)cccc3Cl)s2)cc(N2CCN(CCO)CC2)n1 [Dasatinib, reference compound]	5.2 ± 2.2 µM																				IC50 (BetaD5 [1]; [15]): 5.2 ± 0.6 µM; IC50 (BetaD5 [1]; [16]): 0.84 ± 0.05 µM; IC50 (A2C12 [2]; [15]): 9.8 ± 1.5 µM; IC50 (A2C12 [2]; [16]): 10.3 ± 1.6 µM; IC50 (GammaA3 [3]; [15]): 1.18 ± 0.1 µM; IC50 (GammaA3 [3]; [16]): 0.32 ± 0.07 µM; IC50 (GammaD12 [4]; Mus musculus, 96 h, read-out: IC50 (MTS) after treatment for 96 h): 0.8 µM; IC50 (GammaD12 [4]; Mus musculus, MTS, 24 h, read-out: Calculated IC50 after single treatment for 24 h): 2.6 ± 1 µM; IC50 (HepG2 [5]; Homo sapiens, 24 h, read-out: Calculated IC50 after single treatment for 24 h): 26.2 ± 2.8 µM; IC50 (HepG2 [5]; Homo sapiens, 96 h, read-out: Calculated IC50 after daily treatment for 96 h): 5 ± 0.82 µM; IC50 (CaCo2 [6]; Homo sapiens, Caco-2, 24 h, read-out: Calculated IC50 after single treatment for 24 h): > 100 µM; IC50 (CaCo2 [6]; Homo sapiens, Caco-2, 96 h, read-out: Calculated IC50 after daily treatment for 96 h): 0.44 ± 0.25 µM; IC50 (A549 [7]; Homo sapiens, A549, 24 h, 24 h, read-out: Calculated IC50 after single treatment for 24 h): 39.8 ± 5.8 µM; IC50 (A549 [7]; Homo sapiens, A549, 96 h, 96 h, read-out: Calculated IC50 after daily treatment for 96 h): 5 µM
CSc1nc(NCc2ccccc2)c2cnn(CC(Cl)c3ccccc3)c2n1 (stereo not drawn) [Si34]	10.4 ± 0.4 µM	37 ± 2.3 µM	9.6 ± 0.2 µM	32.8 ± 4.8 µM	8.3 ± 0.3 µM	25.2 ± 3.1 µM	10.7 ± 0.6 µM	23.2 ± 2.5 µM	8.8 ± 1.4 µM	52%	13.2%	34.7%	52.9%	10.5%	36.7%	67.3%	5.6%	27.1%	65.8%	23.1%	Cells in S phase (BetaD5 [11]): 11.1%; Cells in G1 phase (A2C12 [12]): 74.5%; Cells in G2 phase (A2C12 [12]): 9.7%; Cells in S phase (A2C12 [12]): 15.7%; Cells in G1 phase (GammaA3 [13]): 68.6%; Cells in G2 phase (GammaA3 [13]): 16.8%; Cells in S phase (GammaA3 [13]): 14.6%; Cells in G1 phase (GammaD12 [14]): 36.2%; Cells in G2 phase (GammaD12 [14]): 7.9%; Cells in S phase (GammaD12 [14]): 55.9%; IC50 (HepG2 [5]; [18]): 58.5 ± 3 µM; IC50 (HepG2 [5]; [17]): 26.7 ± 4.8 µM; IC50 (CaCo2 [6]; [18]): 58.2 ± 4.2 µM; IC50 (CaCo2 [6]; [17]): 5.9 ± 0.1 µM; IC50 (A549 [7]; [18]): 69.5 ± 27.7 µM
CCCCNc1nc(SCC)nc2c1cnn2CC(Cl)c1ccccc1 (stereo not drawn) [Si20]	13.6 ± 1.5 µM	27 ± 7.9 µM	10.4 µM	28.1 ± 4.6 µM	11.3 ± 0.9 µM	21.5 ± 2.3 µM	15.5 ± 2.3 µM	17.1 ± 1.5 µM	11.3 ± 1.2 µM	61.5%	7.3%	31.2%	61.9%	5.2%	32.9%	78.9%	4.3%	16.7%	63.2%	24.2%	Cells in S phase (BetaD5 [11]): 12.6%; Cells in G1 phase (A2C12 [12]): 55.6%; Cells in G2 phase (A2C12 [12]): 11.3%; Cells in S phase (A2C12 [12]): 33.1%; Cells in G1 phase (GammaA3 [13]): 51.9%; Cells in G2 phase (GammaA3 [13]): 17.5%; Cells in S phase (GammaA3 [13]): 30.8%; Cells in G1 phase (GammaD12 [14]): 31.4%; Cells in G2 phase (GammaD12 [14]): 9.7%; Cells in S phase (GammaD12 [14]): 58.9%; IC50 (HepG2 [5]; [18]): 56.2 ± 2.1 µM; IC50 (HepG2 [5]; [17]): 8.1 ± 2.8 µM; IC50 (CaCo2 [6]; [18]): 56.2 ± 2 µM; IC50 (CaCo2 [6]; [17]): 6.5 ± 0.1 µM; IC50 (A549 [7]; [18]): 25.1 ± 2.6 µM
CSc1nc(NCc2ccccc2)c2cnn(CC(Br)c3ccccc3)c2n1 (stereo not drawn) [Si81]	11.2 ± 1 µM	20.6 ± 4 µM	19.5 ± 3.1 µM	30.8 ± 2.5 µM	12.1 ± 2.1 µM	26.8 ± 1.5 µM	> 20 µM	17.4 ± 2.6 µM	14.1 ± 0.2 µM	58.8%	9.5%	31.7%	58.7%	6.9%	34.3%	62.8%	6.3%	30.9%	61.9%	22%	Cells in S phase (BetaD5 [11]): 16.1%; Cells in G1 phase (A2C12 [12]): 66.7%; Cells in G2 phase (A2C12 [12]): 10.7%; Cells in S phase (A2C12 [12]): 22.6%; Cells in G1 phase (GammaD12 [14]): 33.3%; Cells in G2 phase (GammaD12 [14]): 8.8%; Cells in S phase (GammaD12 [14]): 57.9%; IC50 (HepG2 [5]; [18]): 72.9 ± 6.4 µM; IC50 (HepG2 [5]; [17]): 22.6 ± 4.3 µM; IC50 (CaCo2 [6]; [18]): 72.9 ± 6.4 µM; IC50 (CaCo2 [6]; [17]): 7.5 ± 0.2 µM; IC50 (A549 [7]; [18]): > 100 µM
